# Key:
# [1] = target: T1, Stat3 (Mus musculus, UniProt P42227); assay: In vitro Stat3 DNA-binding activity assay, EMSA with hSIE probe; settings: pre-incubated 30 min before hSIE probe
# T1 construct: Nuclear extract preparation from NIH3T3 stimulated by rhIL-6, NIH3T3/hEGFR stimulated by rhEGF; endogenous in cells; host or cells: NIH3T3/hEGFR fibroblasts stimulated with rhEGF (nuclear extract)
# Protocol: (§1) FIGS. 1A-1E. Inhibition of in vitro Stat3 DNA-binding activity by a platinum complex. Nuclear extracts or cell lysates containing activated Stat1, Stat3 and Stat5, or E2F1 prepared from NIH3T3/hEGFR that are stimulated with EGF or Sf-9 insect cells that are infected with baculovirus expressing Stat1, Stat3, Stat5, or E2F1, respectively, were treated with or without the indicated concentrations of platinum complex, PLATINUM-401 or Cisplatin, for 30 min at room temperature prior to incubation with radiolabeled oligonucleotide probes, and subjected to EMSA analysis. (FIG. 1A) (i) Stat1 and Stat3 binding activities to hSIE probe, (ii) Stat1 and Stat5 binding activities to MGFe probe, and (iii) plot of % oligonucleotide probe-STAT:STAT complexes versus concentration of PLATINUM-401. […] Positions of STAT: STAT-DNA complexes in gel are labeled. In (A) to (C), the control lanes represent DMSO (vehicle)-treatment.
# (§2) Nuclear extract preparation and gel shift assays—Nuclear extract preparation from NIH3T3 stimulated by rhIL-6, NIH3T3/hEGFR stimulated by rhEGF, v-Src-transformed fibroblasts (NIH3T3/v-Src) or tumor cell lines and electrophoretic mobility shift assay were carried out as previously described (Turkson et al., 1998; Garcia et al., 1997; Yu et al., 1995). The ^32P-labeled oligonucleotide probes used are hSIE (high affinity sis-inducible element from the c-fos gene, m67 variant, 5′-[…]) (SEQ ID NO:1) that binds Stat1 and Stat3 (Garcia et al., 1997; Wagner et al., 1990) and MGFe (mammary gland factor element from the bovine β-casein gene promoter, 5′-AGATTTCTAGGAATTCAA) (SEQ ID NO:2) for Stat1 and Stat5 binding (49,50). Except where indicated, inhibitor compound was pre-incubated with the nuclear extract for 30 min at room temperature prior to incubation with radiolabeled probe.
# Compounds from the NCI 2000 diversity set were screened for inhibition of Stat3 signaling in an in vitro DNA-binding activity assay based on analysis by electrophoretic mobility shift assay (EMSA). A platinum (IV) complex, PLATINUM-401 (NSC 295558) (FIG. 1E), was identified as a potent inhibitor of Stat3 and was further characterized for its anti-Stat3 properties. In the in vitro DNA-binding activity assay, nuclear extracts of equal total protein containing active Stat1, Stat3 and Stat5 were pre-incubated with different concentrations of PLATINUM-401 for 30 min prior to incubation with a [^32P]-labeled oligonucleotide, the m67 high affinity sis-inducible element (hSIE) probe that binds Stat1 and Stat3, or the mammary gland factor element (MGFe) that binds Stat1 and Stat5. Samples were then subjected to EMSA.
# [2] = target: T1, Stat3; settings: Turkson et al., 2004b; cited from earlier work
# [3] = target: T2, E2F1 (Homo sapiens, UniProt Q01094); assay: In vitro E2F1 DNA-binding activity assay, EMSA with DHFR promoter probe; settings: cell lysates pre-incubated with compound before DHFR promoter probe
# T2 construct: made in house; host or cells: Sf-9 insect cells infected with baculovirus
# T2 sequence (Q01094 whole entry, species assumed): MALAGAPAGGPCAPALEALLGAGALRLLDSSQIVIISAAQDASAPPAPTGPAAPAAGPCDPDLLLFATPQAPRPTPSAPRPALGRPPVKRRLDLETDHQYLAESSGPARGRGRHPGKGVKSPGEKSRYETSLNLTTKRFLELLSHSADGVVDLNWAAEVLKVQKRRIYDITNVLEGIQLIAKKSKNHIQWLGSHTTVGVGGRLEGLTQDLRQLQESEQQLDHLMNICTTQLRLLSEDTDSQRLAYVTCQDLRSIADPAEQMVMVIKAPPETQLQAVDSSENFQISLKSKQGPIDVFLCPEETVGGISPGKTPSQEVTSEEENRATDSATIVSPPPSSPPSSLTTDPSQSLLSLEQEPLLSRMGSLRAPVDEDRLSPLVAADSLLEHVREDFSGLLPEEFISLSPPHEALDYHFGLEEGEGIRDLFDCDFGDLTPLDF
# Protocol: as §1
# In control studies, the effect of PLATINUM-401 was evaluated on the DNA-binding activity of the E2F1 protein that is unrelated to STATs.
# [4] = tested on: Stat5; assay: In vitro Stat5 DNA-binding activity assay, EMSA with MGFe probe; set-up: species or system mouse; settings: pre-incubated 30 min before MGFe probe
# Protocol: as §1
# Nuclear extract preparation and gel shift assays—Nuclear extract preparation from NIH3T3 stimulated by rhIL-6, NIH3T3/hEGFR stimulated by rhEGF, v-Src-transformed fibroblasts (NIH3T3/v-Src) or tumor cell lines and electrophoretic mobility shift assay were carried out as previously described (Turkson et al., 1998; Garcia et al., 1997; Yu et al., 1995). […]
# [5] = target: T3, Stat1 (Mus musculus, UniProt P42225); assay: In vitro Stat1 DNA-binding activity assay, EMSA with hSIE or MGFe probe; settings: pre-incubated 30 min before probe
# T3 construct: Nuclear extract preparation from NIH3T3 stimulated by rhIL-6, NIH3T3/hEGFR stimulated by rhEGF; endogenous in cells; host or cells: NIH3T3/hEGFR fibroblasts stimulated with rhEGF (nuclear extract)
# T3 sequence (P42225 2-749 limits assumed): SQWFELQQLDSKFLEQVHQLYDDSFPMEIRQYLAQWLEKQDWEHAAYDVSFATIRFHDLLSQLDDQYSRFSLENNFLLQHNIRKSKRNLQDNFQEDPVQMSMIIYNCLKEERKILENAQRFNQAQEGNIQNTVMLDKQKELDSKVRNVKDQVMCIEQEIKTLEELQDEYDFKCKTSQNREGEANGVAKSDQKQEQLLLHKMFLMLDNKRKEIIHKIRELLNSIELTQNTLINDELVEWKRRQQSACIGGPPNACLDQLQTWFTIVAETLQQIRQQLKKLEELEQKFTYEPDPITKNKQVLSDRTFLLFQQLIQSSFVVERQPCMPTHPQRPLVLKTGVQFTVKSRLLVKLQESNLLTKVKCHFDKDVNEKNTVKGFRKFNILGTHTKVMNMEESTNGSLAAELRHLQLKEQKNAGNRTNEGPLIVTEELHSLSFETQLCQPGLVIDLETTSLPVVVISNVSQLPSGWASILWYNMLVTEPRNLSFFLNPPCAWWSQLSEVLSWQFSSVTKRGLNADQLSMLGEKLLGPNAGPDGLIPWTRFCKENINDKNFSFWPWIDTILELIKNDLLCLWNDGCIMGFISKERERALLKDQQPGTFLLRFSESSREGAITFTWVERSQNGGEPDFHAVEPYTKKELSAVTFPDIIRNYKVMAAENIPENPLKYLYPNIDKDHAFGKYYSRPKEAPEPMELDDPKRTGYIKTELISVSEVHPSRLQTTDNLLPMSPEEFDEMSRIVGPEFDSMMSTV
# Protocol: as §1, §2
# Compounds from the NCI 2000 diversity set were screened for inhibition of Stat3 signaling in an in vitro DNA-binding activity assay based on analysis by electrophoretic mobility shift assay (EMSA). […]
# T1 sequence (P42227 2-770 limits assumed): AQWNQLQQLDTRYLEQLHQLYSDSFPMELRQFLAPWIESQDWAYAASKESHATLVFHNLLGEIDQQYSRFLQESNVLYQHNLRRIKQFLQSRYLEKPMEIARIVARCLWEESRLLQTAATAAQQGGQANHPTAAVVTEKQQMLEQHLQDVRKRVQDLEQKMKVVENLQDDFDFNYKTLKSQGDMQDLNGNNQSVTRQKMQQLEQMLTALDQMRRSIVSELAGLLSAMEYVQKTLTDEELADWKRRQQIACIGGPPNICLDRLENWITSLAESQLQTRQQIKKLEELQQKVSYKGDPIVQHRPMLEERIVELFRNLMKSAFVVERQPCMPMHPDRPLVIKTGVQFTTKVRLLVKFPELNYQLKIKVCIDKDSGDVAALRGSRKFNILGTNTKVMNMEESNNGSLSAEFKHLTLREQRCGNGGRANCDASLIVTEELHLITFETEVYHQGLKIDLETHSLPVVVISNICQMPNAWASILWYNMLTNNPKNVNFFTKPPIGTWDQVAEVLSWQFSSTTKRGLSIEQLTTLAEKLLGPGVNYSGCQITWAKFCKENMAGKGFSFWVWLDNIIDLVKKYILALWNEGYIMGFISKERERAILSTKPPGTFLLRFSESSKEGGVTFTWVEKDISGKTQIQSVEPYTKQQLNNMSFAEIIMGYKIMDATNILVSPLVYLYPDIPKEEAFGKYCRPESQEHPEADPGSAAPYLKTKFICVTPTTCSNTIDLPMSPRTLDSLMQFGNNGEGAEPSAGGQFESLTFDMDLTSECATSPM
smiles,measurement,setting,value
"N.N.[Cl][Pt][Cl] [Cisplatin, reference compound]",effect on DNA-binding activity of Stat3:Stat3 homodimer,[1],no detectable effect
same,effect on Stat3 activity,[2],no effect
same,effect on E2F1 DNA-binding activity,[3],no detectable effect
same,effect on DNA-binding activity of Stat5:Stat5 dimer,[4],no detectable effect
same,effect on DNA-binding activity of Stat1:Stat1 homodimer,[5],no detectable effect

# — patent US11571418B2, “Platinum compounds that inhibit constitutive STAT3 signaling and induce cell cycle arrest and apoptosis of malignant cells” (H. LEE MOFFITT CANCER CENTER AND RESEARCH INSTITUTE, INC., priority 2011, dated 2023)
